Results published in patent publication US6686345B2, “DNA-cleaving antitumor agents” (Research Development Foundation, priority 1998, dated 2004).
“Also recorded” adds a separate entry of the source.

How the values were obtained:
[1] = Stability of heterocyclic salts in methanol (CD3OD) monitored by NMR; conditions: solution in CD3OD monitored by NMR
From the text: The stability of solutions of these salts in CD3OD can be monitored by NMR.

[2] = tested on: supercoiled plasmid DNA; assay: DNA cleavage of supercoiled plasmid DNA by aza-enediyne heterocycles (thiazolium and benzothiazolium salts); type: biochemical; conditions: for DNA Cleavage 100 μM: 100 μM compound; for DNA Cleavage 100 μM / DNA Cleavage 1 mM: 50 μM bp DNA, TRIS pH 8.0, 24 hrs at 37° C.; for DNA Cleavage 1 mM: 1 mM compound
Procedure: The DNA cleavage efficiency of aza-enediyne heterocycles is determined by incubating the azaenediynes with supercoiled plasmid DNA. The supercoiled DNA was diluted to 50 μM bp in 50 mM TRIS buffer at pH 8.0. […] DNA topoisomers were separated by electrophoresis (0.8% agarose, 1× TBE, 82V, 1 hr 10 min) and stained with ethidium bromide (0.25 μg/mL) and images were analyzed by phosphorimger.
(§1) The normalized percent cleavage of DNA is determined as: [formula]
DNA cleavage normalized for the small amount (10-25%) of nicked relaxed DNA in control samples (DMSO-only treated DNA) is reported in Table 6.

[3] = tested on: supercoiled ΦX174 plasmid DNA; assay: DNA cleavage by 2-alkynyl pyridinium triflate salts; type: biochemical, ΦX174 Phage; conditions: for Normalized Percent Cleavage of ΦX174 Phage (RF-1) DNA: 24 hrs at 37° C., pH 8.0; for DNA cleavage (in words): pyridinium series
Procedure: as §1
The DNA cleavage efficiency of these azaenediyne heterocycles was determined by incubation with aqueous solutions of supercoiled ΦX174 plasmid DNA. The supercoiled DNA was diluted to 50 μM bp in 50 mM TRIS pH 8.0. The reaction mixtures containing compound and 13% v/v DMSO-d6 were incubated for 24 hrs at 37° C. DNA topoisomers were separated by agarose gel electrophoresis (1 X TBE, 90V, 1 hr), stained with ethidium bromide (0.25 μg/mL), and the images were analyzed on a fluorimager. DNA cleavage results are reported as normalized percent cleavage in Table 7 as for the thiazolium and benzothiazolium salts in Example 8.

[4] = tested on: MCF-7 cancer cells; assay: In vitro cancer cell cytotoxicity of pyridinium salts, MCF-7; type: cell-based; conditions: for IC50: Homo sapiens, MCF7, MCF-7 cells, growth inhibition
From the text: (§2) The 2-ethynyl-1-prop-2-ynyl-pyridinium triflate salt has less activity in the in vitro cytotoxicity assay, perhaps due to the instability of this compound in nucleophilic solvents. The IC50 (50% Inhibition Concentration) is defined as the test compound concentration where the increase from time 0 in the number or mass of treated cells is only 50% as much as the corresponding increase in the vehicle-control at the end of experiment.

[5] = tested on: A549 cancer cells; assay: In vitro cancer cell cytotoxicity of pyridinium salts, A549; type: cell-based; conditions: for IC50: Homo sapiens, A549 cells, growth inhibition
From the text: as §2

[6] = tested on: various cancer cell lines; assay: In vitro cytotoxicity of KeAZB002 on various cancer cell lines; type: cell-based; conditions: variety of cancer cell types, FIG. 16
[7] = tested on: Supercoiled DNA; assay: DNA cleavage by heterocyclic variants (KeAZB series); type: biochemical
Procedure: The gel depicted in FIG. 3 represents the results of the DNA cleavage experiment with KeAZB002. Supercoiled DNA (50 uM in 50 mM TRIS phosphate buffer, pH 8) was incubated with 0 (lanes 1, 5), 1 (lanes 2, 6), 100 (lanes 3, 7), or 1000 (lane 4) uM of KeAZB002 for 24 hours at 20° C. Samples for lanes 5-8 were loaded onto the agarose gel, whereas samples for lanes 1-4 were heated at 70° C. for 90 sec. prior to loading onto the gel. After electrophoresis at 60 V for 2 hrs, the DNA products were visualized with ethidium bromide staining and UV transillumination.

[8] = Stability of KeAZB002 in aqueous solution; type: physicochemical
[9] = tested on: A549 non-small cell lung cancer cells; assay: In vivo evaluation in SCID mice implanted with A549 cells
[10] = Thermal isomerization (aza-Bergman rearrangement) of C,N-dialkynylimine; type: physicochemical; conditions: slower than 5a to 7a
From the text: A general synthetic route to C,N-dialkynylimines (3-aza-enediynes) 5a,b is depicted in FIG. 1. These imines are isolated as air stable yellow oils after chromatography. When a benzene solution of 5a is heated under reflux overnight, nitrile 7a is produced in 88% yield (FIG. 2). The nitrile 7a is isolated as a single stereoisomer, which is assigned the (Z)-geometry by comparison with authentic (E)-7a. Authentic (E)-7a was synthesized by the palladium-catalyzed coupling of 1-propynyltributyltin and the (E)-enol triflate of 2-cyano-2-phenylacetophenone. Heating a solution of imine 5a in benzene containing a large excess of 1,4-cyclohexadiene (1,4-chd) as a hydrogen atom trap, or in neat 1,4-chd at 150° C. for two hours affords the nitrile 7a as the only isolable product. The imine 5b contains a pendent double bond that could serve as an intramolecular trap for the putative diradical intermediate 6 (FIG. 2). We find that heating a benzene solution of 5b containing a large excess of 1,4-chd affords only the nitrile 7b in nearly quantitative yield. In none of these reactions were any products (e.g. 8 or 10) which would arise from trapping of the 2,5-ddp intermediate 6 detected.
The ^t½ for the Bergman cyclization of the corresponding (Z)-1,6-diphenylhex-3-ene-1,5-diyne to o-terphenyl is about 1000-fold slower than the rearrangement of 5a to 7a.

C#CC[n+]1ccsc1C#Cc1ccccc1 [drawing 119]
Stability in MeOH (Initial Decomposition) [1]: ˜24 hr | DNA Cleavage 100 μM [2]: 76% | DNA Cleavage 1 mM [2]: 100%

C#CC[n+]1c(C#Cc2ccc(C)cc2)sc2ccccc21
Stability in MeOH (Initial Decomposition) [1]: 0.333 to 0.5 h | DNA Cleavage 1 mM [2]: 100%

C#CC[n+]1c(-c2ccccc2)c(-c2ccccc2)n(C)c1C#Cc1ccccc1
Stability in MeOH (Initial Decomposition) [1]: >24 h | DNA Cleavage 100 μM [2]: 1.4% | DNA Cleavage 1 mM [2]: 10%

C#CC[n+]1ccccc1CCc1ccccc1 [drawing 128, 1-prop-2-ynyl-2-phenethyl-pyridinium triflate]
Normalized Percent Cleavage of ΦX174 Phage (RF-1) DNA ([3]; 1 μM): 2% | Normalized Percent Cleavage of ΦX174 Phage (RF-1) DNA ([3]; 10 μM): 4% | Normalized Percent Cleavage of ΦX174 Phage (RF-1) DNA ([3]; 50 μM): 10% | Normalized Percent Cleavage of ΦX174 Phage (RF-1) DNA ([3]; 100 μM): 13% | DNA cleavage (in words) ([3]; ΦX174 DNA): does not cleave DNA to any appreciable extent

C#CC[n+]1ccccc1CCc1ccccc1 [drawing 133]
IC50 [4]: 23 µM | IC50 [5]: 11 µM

C(#Cc1nc2ccccc2s1)c1ccccc1
Stability in MeOH (Initial Decomposition) [1]: >24 h | DNA Cleavage 1 mM [2]: 5%

Cn1c(C#Cc2ccccc2)[n+](CC#Cc2ccccc2)c2ccccc21.F[B-](F)(F)F [KeAZB002, N-phenylpropargyl-N-methyl-2-phenylethynylbenzimidazolium tetrafluoroborate]
in vitro cytotoxicity (in words) [6]: shows activity against several tumor cell lines in vitro; also recorded: cytotoxic to a variety of cancer cell types | DNA cleavage (in words) [7]: cleaves DNA at micromolar concentrations; also recorded: cleaves the DNA, producing frank single strand breaks; also recorded: strongly temperature dependent | stability in basic aqueous solution ([8]; basic aqueous solution): undergoes a series of reactions | stability in water ([8]; water at neutral pH): stable indefinitely | antitumor activity in vivo (in words) [9]: demonstrates antitumor activity in vivo; also recorded: modest antitumor activity | tumor weight ([9]; seventeen days, versus control): decreased consistently in comparison to control

C(#Cc1ccccc1)/C=C\C#Cc1ccccc1 [(Z)-1,6-diphenylhex-3-ene-1,5-diyne]
t½ for the Bergman cyclization relative to rearrangement of 5a to 7a [10]: about 1000 fold

C#CC[n+]1ccccc1C#Cc1ccccc1.O=S(=O)([O-])C(F)(F)F [KeAZB009, N-propargyl-2-phenylethynylpyridiniumium triflate]
DNA cleavage (in words) [7]: more potent DNA cleavage than KeAZB002

C(#Cc1nccs1)c1ccccc1
Stability in MeOH (Initial Decomposition) [1]: >24 h | DNA Cleavage 1 mM [2]: 1.5%

C#CC[n+]1c(C#Cc2ccccc2)sc2ccccc21
Stability in MeOH (Initial Decomposition) [1]: ˜30 min | DNA Cleavage 100 μM [2]: 46% | DNA Cleavage 1 mM [2]: 100%

C#CC[n+]1ccccc1C#C [drawing 132]
IC50 [4]: 63 µM | IC50 [5]: 21 µM

C#CC[n+]1ccccc1C#Cc1ccc(OC)cc1 [drawing 123, 1-prop-2-ynyl-2[(4-methoxyphenyl)-ethynyl]-pyridinium triflate]
Normalized Percent Cleavage of ΦX174 Phage (RF-1) DNA ([3]; 1 μM): 7.5% | Normalized Percent Cleavage of ΦX174 Phage (RF-1) DNA ([3]; 10 μM): 71% | Normalized Percent Cleavage of ΦX174 Phage (RF-1) DNA ([3]; 50 μM): 97% | Normalized Percent Cleavage of ΦX174 Phage (RF-1) DNA ([3]; 100 μM): 100% | lowest concentration producing DNA cleavage ([3]; ΦX174 DNA): 1 µM | DNA cleavage (in words) ([3]; ΦX174 DNA): most potent DNA cleavage activity

C#CC[n+]1ccccc1C#Cc1ccccc1 [drawing 122, 1-prop-2-ynyl-2-phenylethynyl pyridinium triflate]
Normalized Percent Cleavage of ΦX174 Phage (RF-1) DNA ([3]; 1 μM): 0.4% | Normalized Percent Cleavage of ΦX174 Phage (RF-1) DNA ([3]; 10 μM): 17% | Normalized Percent Cleavage of ΦX174 Phage (RF-1) DNA ([3]; 50 μM): 83% | Normalized Percent Cleavage of ΦX174 Phage (RF-1) DNA ([3]; 100 μM): 87%

C[n+]1ccsc1C#Cc1ccccc1
DNA Cleavage 1 mM [2]: 27%

C#CC[n+]1ccccc1C#C [drawing 125, 1-prop-2-ynyl-2-ethynyl-pyridinium triflate]
growth inhibition of MCF-7 cells (in words) ([4]; MCF-7): less activity | growth inhibition of A549 cells (in words) ([5]; A549): less activity | Normalized Percent Cleavage of ΦX174 Phage (RF-1) DNA ([3]; 1 μM): 12% | Normalized Percent Cleavage of ΦX174 Phage (RF-1) DNA ([3]; 10 μM): 39% | Normalized Percent Cleavage of ΦX174 Phage (RF-1) DNA ([3]; 50 μM): 77% | Normalized Percent Cleavage of ΦX174 Phage (RF-1) DNA ([3]; 100 μM): 85%

C#CC[n+]1ccccc1C#C[Si](C)(C)C [1-prop-2-ynyl-2[(trimethyl-silanyl)-ethynyl]-pyridinium triflate]
Normalized Percent Cleavage of ΦX174 Phage (RF-1) DNA ([3]; 1 μM): 9% | Normalized Percent Cleavage of ΦX174 Phage (RF-1) DNA ([3]; 10 μM): 34% | Normalized Percent Cleavage of ΦX174 Phage (RF-1) DNA ([3]; 50 μM): 73% | Normalized Percent Cleavage of ΦX174 Phage (RF-1) DNA ([3]; 100 μM): 89%

C#CC[n+]1ccsc1C#Cc1ccccc1 [drawing 121]
Normalized Cleavage (%) ([2]; Concentration 25 μM): 37.31% | Normalized Cleavage (%) ([2]; Concentration 50 μM): 56.84% | Normalized Cleavage (%) ([2]; Concentration 100 μM): 67.29% | Normalized Cleavage (%) ([2]; Concentration 250 μM): 92.79%

C#CC[n+]1c(C#C[Si](C)(C)C)sc2ccccc21
DNA Cleavage 1 mM [2]: 100%

C#CC[n+]1ccccc1C#Cc1ccc(C(F)(F)F)cc1 [drawing 131]
IC50 [4]: 10 µM | IC50 [5]: 9.8 µM

C#CC[n+]1c(C#C[Si](C(C)C)(C(C)C)C(C)C)sc2ccccc21
DNA Cleavage 1 mM [2]: 0%

C#CC[n+]1ccccc1C#C[Si](C(C)C)(C(C)C)C(C)C [1-prop-2-ynyl-2[(triisopropyl-silanyl)-ethynyl]-pyridinium triflate]
Normalized Percent Cleavage of ΦX174 Phage (RF-1) DNA ([3]; 1 μM): 0% | Normalized Percent Cleavage of ΦX174 Phage (RF-1) DNA ([3]; 10 μM): 8.1% | Normalized Percent Cleavage of ΦX174 Phage (RF-1) DNA ([3]; 50 μM): 49% | Normalized Percent Cleavage of ΦX174 Phage (RF-1) DNA ([3]; 100 μM): 77% | DNA cleavage (in words) ([3]; ΦX174 DNA): cleaves DNA less efficiently than all of the other 2-alkynyl substituted analogs

C[n+]1c(C#Cc2ccccc2)sc2ccccc21
Stability in MeOH (Initial Decomposition) [1]: 0.167 to 0.25 h | DNA Cleavage 1 mM [2]: 96%

C#CC[n+]1cccnc1C#Cc1ccccc1
Stability in MeOH (Initial Decomposition) [1]: >24 h | DNA Cleavage 100 μM [2]: 14.4% | DNA Cleavage 1 mM [2]: 43.3%

C#CC[n+]1ccccc1C#Cc1ccc(C(F)(F)F)cc1 [drawing 124, 1-prop-2-ynyl-2[(4-trifluoromethylphenyl)-ethynyl]-pyridinium triflate]
Normalized Percent Cleavage of ΦX174 Phage (RF-1) DNA ([3]; 1 μM): 0.9% | Normalized Percent Cleavage of ΦX174 Phage (RF-1) DNA ([3]; 10 μM): 33% | Normalized Percent Cleavage of ΦX174 Phage (RF-1) DNA ([3]; 50 μM): 78% | Normalized Percent Cleavage of ΦX174 Phage (RF-1) DNA ([3]; 100 μM): 90%

C#CC[n+]1ccccc1C#Cc1ccc(OC)cc1 [drawing 130]
IC50 [4]: 8.7 µM | IC50 [5]: 2.7 µM

C#CC[n+]1ccccc1C#Cc1ccccc1 [drawing 129]
IC50 [4]: 3.1 µM | IC50 [5]: 3.3 µM
